The text below walks through data of publication PMC12202533, “Mechanistic Insights and Anti-cancer Activity of 2H-benzo[b][1,4]oxazin-3(4H)-one Linked 1,2,3-Triazoles in Human Cancer Cells” (Frontiers in Pharmacology, 2025).

Test [1] relates to A549 cells. The test is described as follows: DNA damage staining (γ-H2AX antibody and DAPI). The conditions noted are these: A549, 5, 10, and 20 μM, 24 h. Type of test: cell-based, human. On the procedure: In order to further verify the effects of 2H-1,4-benzoxazin-3(4H)-one linked 1,2,3-triazole derivatives on DNA damage, A549 cells were treated with different doses (5, 10, and 20 μM) of compounds 14b and 14c. After 24-h treatment, cells were stained with γ-H2AX antibody and DAPI, cell nuclei were stained blue, and DNA-damaged cells were stained green. Using confocal microscopy, cells were observed and photographed.
A549 cells were seeded at a density of 2 × 10^3 cells per well in 96-well plates. Cells were treated with different concentrations (0, 5, 10, 20, and 30 μM) of the compounds for 24 h. DNA damage was assessed using a DNA damage detection kit. The cell nuclei were stained blue, while DNA-damaged cells were stained green. Cells were then observed and photographed using a fluorescence microscope.

Test [2] has as its system A549. The test can be described thus: CCK-8 cell viability assay and IC50 measurement. The test is classed as cell-based, human. As to conditions: Homo sapiens; for viability at 40 µM / inhibition at 40 µM: A549, 40 μM, 48 h; for viability at 40 µM: CCK-8, read-out: Cell viability (100%), 40 μM, 48 h, A549; for inhibition at 40 µM: read-out: inhibition rate. How it is done: In order to investigate the anticancer activity of new synthetic 1,4-benzoxazinone-linked 1,2,3-triazole compounds, we chose several cancer cell lines, including A549 (lung), Huh7 (liver), MCF-7 (breast), HCT-116 (colon), and SKOV3 (ovary), and measured cell viability using the CCK-8 assay. Cells were exposed to 40 μM of the compounds for 48 h, and then cell viability was determined. […] In addition, we used the reference drug gefitinib as a positive control and measured its cell viability on different cell lines. […] We used BEAS-2B cells as a normal cell line to determine the toxic effects of these compounds on normal cells. […] Furthermore, we evaluated the IC50 of these compounds in A549.
Human cancer cell lines A549, Huh7, MCF-7, HCT-116, and SKOV3 were obtained from ATCC. The cells were cultured in DMEM or RPMI 1640 medium supplemented with 10% FBS and 1% penicillin/streptomycin and incubated at 37°C in a CO2-humidified atmosphere.
Cells were cultured in DMEM or RPMI 1640 medium containing 10% FBS and 1% penicillin/streptomycin at 37°C and 5% CO2. The CCK-8 assay was performed on several human cancer cell lines, including A549, Huh7, MCF-7, HCT-116, and SKOV3, according to the manufacturer’s instructions. Cells were plated at a density of 5 × 10^3 cells per well in a 96-well plate. After 24 h of incubation, cells were treated with 40 μM compounds for 48 h. Cell viability was assessed by adding 10 μL of CCK-8 reagent, dissolved in the cell culture medium, and incubating for 1 h. Absorbance was measured at 450 nm using a microplate reader. IC50 values were determined using a dose-response curve with six concentrations (0, 10, 20, 40, 80, and 160 μM), and IC50 values were calculated using GraphPad Prism software.
(In general: Tetrazolium dyes change colour on reduction, which living cells bring about.)

Test [3] deals with A549 cells. The test can be described thus: Annexin V-FITC/PI apoptosis quantification by flow cytometry. Type of test: cell-based, human. As to conditions: 48 h. How it is done: We used these two compounds to clarify this function and explore the underlying mechanism. To investigate whether the new compound could induce cell apoptosis, A549 cells were exposed to different concentrations of 14b and 14c for 48 h. The cells were then stained with Annexin V-FITC and propidium iodide (PI). The Annexin V-FITC/PI staining was performed to quantify the percentage of apoptotic cells by flow cytometry.
A549 cells were exposed to different concentrations of 14b and 14c (5 μM, 10 μM, and 20 μM) for 48 h. Cells were collected and stained with Annexin V-FITC and PI, and apoptotic cells were measured by flow cytometry. Data are presented as mean ± SEM, *P < 0.05.
A549 cells were plated at a density of 3 × 10^5 cells per well in a six-well plate. Compounds at concentrations of 0, 5, 10, or 20 μM were added to the cells for 48 h. Cells were then collected, washed with PBS, and stained with Annexin V-FITC and propidium iodide for 20 min. Apoptotic cells were quantified using a flow cytometer, and the data were further analyzed using FlowJo software.

The subject of test [4] is HCT-116. The test can be described thus: CCK-8 cell viability assay. The test is classed as cell-based. The conditions noted are these: Homo sapiens, HCT-116, 40 μM, 48 h, read-out: Cell viability (100%), 40 μM, 48 h, HCT-116.
Test [5] relates to A549 cells. The test can be described thus: RT-PCR gene expression. As to conditions: A549, 10 μM, 48 h. The test is classed as cell-based, human. How it is done: To investigate the molecular mechanisms underlying the anti-tumor activity of 2H-1,4-benzoxazin-3(4H)-one-linked 1,2,3-triazole derivatives, we examined the expression of key genes involved in cell growth and death, including those related to DNA damage, oxidative stress, apoptosis, and autophagy (Figure 5). Gene expression was assessed in A549 cells treated with 14b or 14c (10 μM) for 48 h. […] The regulation of gene expression is a complex process regulated by many signaling pathways, and these signaling pathways interact with each other, all of which lead to a change in gene expression, not all in the same direction. Although the DNA damage gene p21 was decreased, another key gene, H2AX, was increased, which may stimulate DNA damage. These findings in A549 cells align with the results observed following 14b and 14c treatments.
FIGURE 5 Compounds 14b and 14c increased the gene expression. A549 cells were treated with 14b (A) and 14c (B) (10 μM) for 48 h. Gene expressions were detected by RT-PCR. Data are presented as mean ± SEM, *P < 0.05.
A549 cells were seeded in 12-well plates and treated with compounds for 48 h. Total RNA was extracted using TRIzol reagent, and RT-PCR was performed using PowerUp™ SYBR™ Green Master Mix. Gene expression was normalized to GAPDH. The results are expressed as mean ± SEM, and statistical significance was assessed using a two-tailed Student’s t-test (P < 0.05).

Test [6] concerns A549 cells. The test is described as follows: Autophagy staining assay (MDC probe). Type of test: cell-based, human. As to conditions: A549, 10, 20, and 30 μM, 24 h. On the procedure:
To further evaluate the role of 2H-1,4-benzoxazin-3(4H)-one-linked 1,2,3-Triazole derivatives in regulating autophagy, A549 cells were treated with different doses (10, 20, and 30 μM) of compounds 14b and 14c for 24 h, and the autophagosome was detected by MDC (monodansylcadaverine) probe.
A549 cells were seeded at a density of 2 × 10^3 cells per well in a 96-well plate and treated with compounds at concentrations of 0, 5, 10, 20, and 30 μM for 24 h. After treatment, the medium was replaced, and cells were stained with monodansylcadaverine for 1 h in the dark at 37°C. Cells were then imaged using a confocal microscope.

Where [7] appears, read: A549, 48 h, read-out: IC50 48 h.
Setting [8] is: A549, 72 h, read-out: IC50 72 h.

Where two headings read alike, the source gives them in different places. Some results are limits rather than exact numbers.

On to `O=C1COc2ccc(NC(=O)c3cccc(-c4cn(-c5ccccc5F)nn4)c3)cc2N1` [Compound 14c], for which the “DNA damage (γ-H2AX staining)” value in test [1] is recorded as “significantly led to DNA damage in a concentration-dependent manner”. Also, the IC50 – broadly, the point on the concentration scale where inhibition reaches its midpoint – in test [2] (setting [7]) was determined as 24.1 ± 3.83 µM. Also, in test [2] (setting [8]), the IC50 is 18.5 ± 0.59 µM. Besides, in test [2], the viability (usually a read-out of living cells in per cent, often relative to untreated cells) at 40 µM is 22.6 ± 0.88% and the inhibition (as a rule, the share of the control response that was lost under treatment) at 40 µM is greater than 50%. Also, the “percentage of early and late apoptotic cells” value (“percentage” below) in test [3] (A549, 5 μM) was 12.57%. Besides, the “percentage” value in test [3] (A549, 10 μM) worked out at 27.21%. The “percentage” value in test [3] (A549, 20 μM) turned out to be 72.02%. In addition, the viability at 40 µM in test [4] worked out at 65.3 ± 4.55%. Also, in test [5], the ATG7 gene expression entry was “upregulated”, the Gpx4 gene expression entry is given as “upregulated”, the H2AX gene expression entry is listed as “upregulated” and the apoptosis-related genes expression entry is recorded as “either downregulated or unchanged”. Also, in test [6], the “autophagy (autophagosome, MDC probe)” value is recorded as “autophagy was largely induced”.

For the compound `O=C1COc2ccc(NC(=O)c3cccc(-c4cn(-c5cccc(Br)c5)nn4)c3)cc2N1` [Compound 14b], the “DNA damage (γ-H2AX staining)” value in test [1] is “significantly led to DNA damage in a concentration-dependent manner”. In addition, the IC50 in test [2] (setting [7]) is 25.1 ± 4.62 µM; in test [2] (setting [8]), 7.59 ± 0.31 µM. For the same compound, the viability at 40 µM in test [2] was determined as 27 ± 0.98%; in test [4], 125 ± 2.78%. Further, the inhibition at 40 µM in test [2] is greater than 50%. In addition, the “percentage” value in test [3] (A549, 5 μM) is listed as 13.92%; in test [3] (A549, 10 μM) it was 25.85%; in test [3] (A549, 20 μM), 49.04%. The ATG7 gene expression entry in test [5] is “increased expression”. Moreover, the Nrf2 gene expression entry in test [5] is given as “increased expression”. Also, the p53 gene expression result in test [5] is “increased expression”. Further, the “autophagy (autophagosome, MDC probe)” value in test [6] was “autophagy was largely induced”.
